The text below walks through data of patent US20090148391A1, “[…] ACTIVE PREPARATIONS COMPRISING […] DERIVATIVES AND FURTHER SKIN AND/OR HAIR LIGHTENING AND/OR SENILE KERATOSIS REDUCING COMPOUNDS” (SYMRISE GmbH & Co. KG, priority 2006, published 2009).

Structures are written as SMILES.

The test system of one assay is fungal-tyrosinase. Kind of assay: Tyrosinase-Assay: oxidation of L-DOPA to dopachrome with or without test substance, photometric detection at 475 nm. Format: biochemical. The following applies: weight ratio of the mixture; 50 u/ml fungal-tyrosinase, pH 6.8, 37° C., L-DOPA 0.1 mg/ml.
Another assay has as its system 3T3 firbrosarcoma cells. The note with it: cited from earlier work.
The subject of assay [1] is B16V mouse melanoma cells. The note with it: cited from earlier work.

Method for fungal-tyrosinase: The principle of the assay is to oxidise L-DOPA to dopachrome with or without the test substance under physiological conditions in a controlled reaction. Dopachrome and dopaquinone is detected via photometric detection methods. Commercially available fungal-tyrosinase is used for testing the enzyme activity and the correlating inhibition of melanin production.
The enzymatic reaction was conducted with or without a potential inhibitor of the tyrosinase of constituents (a) and (b), such as styrylresorcinol of formula 3 (more than 99% purity) of constituent (a) alone, specific compounds of the constituent b) selected from the group consisting of (i) chelating agents, (ii) phenolic derivatives, plant extracts with an amount of phenolic derivatives and (iii) organic acid derivatives alone, as well as mixtures thereof.
The concentrations of the inhibitor or a mixture thereof range from 0.1 to 1000 μg/ml. The enzyme activity was adjusted to 50 u/ml fungal-tyrosinase in 66.7 mM phosphate buffer (pH=6.8). The reaction mixture was incubated for 10 minutes in a 96-well microtiter plate in a horizontal agitator at 37° C. Then L-DOPA (end concentration: 0.1 mg/ml). The enzymatic conversion to dopachrome is related to the inhibition activity of the single test substances or the mixture thereof, which is shown in a brown discolouration, which can be detected at 475 nm. […]

In the case of `O=c1cc(CO)occ1O` [Kojic acid, 5-hydroxy-2-hydroxymethyl-4-pyranone], the “Ratio 4-(1-phenylthyl)-1,3-dihydroxybenzene CARN 85-27-8:(i) Chelating Agent showing synergistic enhanced lightening activity in the tyrosinase assay” value in the assay with fungal-tyrosinase stood at 1.3.

For the compound `CC(c1ccccc1)c1ccc(O)cc1O` (stereo not drawn) [styrylresorcinol of the formula 3, 4-(1-phenylethyl)-1,3-dihydroxybenzene], the tyrosinase-inhibiting activity entry (in the assay with 3T3 firbrosarcoma cells; in assay [1]) was “clearly demonstrated” in each case.
